For 1 compound, IC50 results are on record in patent publication US4803217A, “Hapalindolinone compounds as vassopressin antagonists” (Merck & Co., Inc., priority 1986, dated 1989).

Assay [1] addresses T1, V1 (pressor) vasopressin receptor, rat liver crude membrane preparation (Rattus norvegicus, UniProt P30560).
T1 construct: crude membrane preparation of rat liver (V1 receptor); from tissue; host or cells: rat liver, crude membrane preparation
Briefly: [3H]Arginine Vasopressin Binding Assay, liver (V1). The settings on record: rat liver membranes; mean, n = 3; read-out: IC50 Values, 3H-Arg8-Vasopressin Binding, Liver (V1). An excerpt: (§1) The table summarizes the in vitro potency of the compound to compete for ^3 H-vasopressin binding at two proposed vasopressin receptor subtypes (V1, V2), as well as to inhibit vasopressin-stimulated adenylate cyclase-activity, a further measure of vasopressin antagonism.
(§2) The [^3 H]Arginine Vasopressin Binding Assay is an in vitro procedure which was adapted from the method of Guillon et al., Eur. J. Pharmacol. 85: 219-304 (1982). It measures the relative affinity of the compound for vasopressin receptor(s) labelled by [^3 H]vasopressin. Vasopressin receptors have been divided into two subtypes pharmacollogically: the V1 (pressor)-receptor found in liver and vascular smooth muscle and the V2 (antidiuretic) receptor found in kidney medulla. The binding assay uses a crude membrane preparation of rat liver (V1 receptor) or kidney medulla (V2 receptor) which is incubated with [^3 H]vaspopressin in the presence or absence of the test compound. The IC50 values (concentrations to inhibit [^3 H]vasopressin binding by 50%) for the compound (see Table VI) are measures of their potencies and are inversely related to their affinities.

The target in assay [2] is T2, V2 (antidiuretic) vasopressin receptor, kidney medulla crude membrane preparation (Rattus norvegicus, UniProt Q00788).
T2 construct: crude membrane preparation of rat liver (V1 receptor) or kidney medulla (V2 receptor); from tissue; host or cells: kidney medulla, crude membrane preparation
As to the kind of experiment: [3H]Arginine Vasopressin Binding Assay, kidney medulla (V2). As to conditions: kidney medulla membranes; mean with standard error, n = 3; read-out: IC50 Values, 3H-Arg8-Vasopressin Binding, Kidney (V2).
Description: as §1, §2

Assay [3] has as its target vasopressin-stimulated adenylate cyclase, Kidney (V2). As to the kind of experiment: Inhibition of vasopressin-stimulated adenylate cyclase in kidney medulla (V2 antagonism). The assay is classed as biochemical. The settings on record: conversion of ATP to cAMP, mean, n = 2, read-out: IC50 Values, AVP-stimulated Ad. Cyclase, Kidney (V2).
Description: as §1
Vasopressin exerts its antidiuretic effects on the kidney through the stimulation of adenylate cyclase activity. Vasopressin-stimulated adenylate cyclase in kidney medulla, therefore, is used as a functional assay to determine the potencies of the test compound as V2 -vasopressin antagonists. In this assay, the IC50 value obtained for the compound IA (see Table IV) is a measure of its potency to inhibit the vasopressin-stimulated conversion of ATP to CAMP by adenylate cyclase. This method was adapted from Seamon et al., PNAS 78: 3363-3367 (1981).

T2 sequence (Q00788 whole entry): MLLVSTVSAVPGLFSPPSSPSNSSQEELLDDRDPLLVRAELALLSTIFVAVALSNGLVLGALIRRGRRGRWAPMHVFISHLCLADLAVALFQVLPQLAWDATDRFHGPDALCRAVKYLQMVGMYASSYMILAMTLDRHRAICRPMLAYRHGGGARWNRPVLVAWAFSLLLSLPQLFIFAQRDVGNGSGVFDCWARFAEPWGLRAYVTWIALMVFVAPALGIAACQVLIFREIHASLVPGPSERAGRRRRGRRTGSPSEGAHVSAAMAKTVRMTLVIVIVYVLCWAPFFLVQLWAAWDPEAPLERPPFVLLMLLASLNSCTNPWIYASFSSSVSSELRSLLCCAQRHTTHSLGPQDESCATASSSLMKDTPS
T1 sequence (P30560 whole entry): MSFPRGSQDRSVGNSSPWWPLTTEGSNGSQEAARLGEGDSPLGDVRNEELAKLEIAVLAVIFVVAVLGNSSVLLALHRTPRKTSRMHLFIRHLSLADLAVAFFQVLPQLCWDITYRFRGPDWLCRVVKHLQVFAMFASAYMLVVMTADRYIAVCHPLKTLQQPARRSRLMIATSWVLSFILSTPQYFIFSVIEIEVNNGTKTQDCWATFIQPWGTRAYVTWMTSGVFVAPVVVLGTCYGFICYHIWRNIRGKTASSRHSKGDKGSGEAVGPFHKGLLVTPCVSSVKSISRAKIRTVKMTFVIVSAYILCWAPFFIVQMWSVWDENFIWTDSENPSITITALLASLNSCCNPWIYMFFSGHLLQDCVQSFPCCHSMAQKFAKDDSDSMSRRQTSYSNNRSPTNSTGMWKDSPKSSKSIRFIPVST

For orientation: IC50 means the midpoint of a concentration-inhibition curve. For `[C-]#[N+]C12C(C(C(=C)C)CC(Cl)C1(C)C=C)C21C(=O)Nc2ccccc21` (stereo not drawn) [Formula IA, Hapalindolinone A], the values for the IC50 in assay [1], in assay [2] and in assay [3] were more than 100 µM, 37.5 ± 7.6 µM and 44.6 µM, respectively.
